Measured values from patent publication US10292992B2, “Selective high-affinity polydentate ligands and methods of making such” (LAWRENCE LIVERMORE NATIONAL SECURITY, LLC, priority 2008, dated 2019).
Where two headings read alike, the source gives them in different places.

Columns and labels:
[1] = Stability in human plasma by cellulose acetate electrophoresis; assay type: in vitro ADME; conditions: human plasma at 37° C. for 24 hrs; one preliminary CAE experiment
Text: Two forms of the free amine SHAL, (DvLPBaPPP)2LLA, and the hexa-arginine analog, (DvLPBaPPP)2LArg6AcLLA, were synthesized in multi-milligram amounts and purified by high performance liquid chromatography (HPLC). A biotin was attached to the ε-amino group of the terminal amine (A) on both (DvLPBaPPP)2LLA and (DvLPBaPPP)2LArg6AcLLA to produce biotinylated forms for use in cell and protein binding experiments. 1,4,7,10-tetraazacyclododecane-1,4,7,10-tetraacetic acid (DOTA) was attached to both (DvLPBaPPP)2LLA and (DvLPBaPPP)2LArg6AcLLA at the same site to enable the SHALs to be labeled with ^111In. The DOTA SHAL (DvLPBaPPP)2LLDo (FIG. 25A) and the hexa-arginine SHAL analog (DvLPBaPPP)2LArg6AcLLDo (FIG. 25B) were labeled with ^111In at high efficiency (>90%) with specific activities ranging from 70-85 μCi/μg SHAL. […] D-isomers of arginine incorporated during the synthesis of the hexa-arginine sequence in (DvLPBaPPP)2LArg6AcLLDo were used to minimize the proteolytic susceptibility of the peptide.

[2] = test system: Raji human HLA-DR10 expressing lymphoma cells; assay: Cytotoxicity assay (trypan blue) in Raji cell culture; assay type: cell-based
Description: Raji cells harvested in log growth phase were centrifuged, resuspended in fresh media and counted in 10% trypan-blue dye to determine initial and subsequent viability, as previously described (West et al. (2006) Cancer Biother. Radiopharm., 21: 645-654). When untreated, cells continued to multiply and nonviable cells, initially <5% of total cells, remained so over the course of the assays. To titrate cytotoxic activity, biotinylated tridentate SHAL at concentrations ranging between 0 and 7 nM (pm/ml media) was incubated with 0.5×10^6 cells/ml at 37° C. in a 5% CO2, humidified atmosphere (NAPCO, Portland, Oreg.). After 1, 2 and 3 days, cells were resuspended in trypan blue dye and counted in a hemocytometer. The fractional viability and absolute number of viable and non-viable cells/ml were determined.

[3] = test system: Jurkat's xenografts; assay: Efficacy in mice with Jurkat's xenografts; assay type: in vivo, athymic Balb/c nu/nu mice
Text: Seven- to nine-week old female, athymic Balb/c nu/nu mice (Harlan Sprague Dawley, Inc., Frederick, Md.) were maintained according to University of California animal care guidelines under pathogen-free conditions and on a normal ad libitum diet. Raji or Jurkat's cells harvested in log phase and having >95% viability were implanted (6×10^6 cells) subcutaneously in the lower abdomen 3-4 days after the mice were irradiated (400 cGy) to suppress xenograft rejection. When xenografts reached 20-500 mm3 by caliper measurement, the mice were sorted by xenograft volume into 4 groups: SHAL-treated mice with Raji xenografts, SHAL-treated mice with Jurkat's xenografts, untreated mice with Raji xenografts or untreated mice with Jurkat's xenografts. Each mouse was injected with 100 μl of PBS or 100 ng DOTA-chelated tridentate SHAL i.p. on days 0, 7 and 14. Xenograft volume and survival were monitored for ≥84 days. The mice were also weighed 2-3 times each week for 4 weeks then weekly. Blood counts were measured prior to each SHAL or PBS dose and weekly for 4 weeks after the final dose using a Z Series Coulter Counter (Beckman Coulter Inc., Hialeah, Fla.) and a phase contrast microscope (Zeiss, Jena, Germany).
Xenograft volumes were calculated by the formula for hemiellipsoids (DeNardo et al. (1997) Clin. Cancer Res. 3: 71-79). […] If a xenograft became >2000 mm3, the mouse was euthanized in accordance with University of California animal care guidelines and scored as a disease-related death.
Initial analysis compared response rates by exact tests and survival times by log-rank tests for untreated Raji and Jurkat's mice and found no significant differences, so these groups were pooled for subsequent analysis. Response rates for treated Raji, treated Jurkat's and untreated mice were compared by x^2 and exact tests. Survival times were censored at 84 days for mice who had not died or been euthanized because of tumor growth before that time. Times were summarized descriptively by Kaplan-Meier curves and median survival and 95% confidence limits were obtained by the product-limit estimate. The two treated groups were compared to the untreated using a log-rank test for homogeneity across groups, followed by a proportional hazards model to estimate the effect of treatment compared to no treatment. Analyses were carried out using SAS/SAT® software (SAS Institute, Inc. SAS/STAT Version 9.0. 2004. Cary, N.C.: SAS Institute). All tests were two-sided at level 0.05.

[4] = 100 ng DOTA-chelated tridentate SHAL i.p. days 0, 7 and 14

Row | SMILES | degradation in human plasma [1] | threshold concentration for cytotoxic activity ([2]; Raji cell culture) [nM] | IC50 ([2]; Raji cell culture, read-out: IC50 concentration for cytotoxic activity) [nM] | threshold SHAL cytotoxic concentration ([2]; biotinylated tridentate SHAL, determined at 2 days) | IC50 ([2]; biotinylated tridentate SHAL, determined at 2 days, read-out: IC50 SHAL cytotoxic concentration) [nM] | Cure [3, 4] [%] | ORR (overall response rate) [3, 4] [%] | longest survival (FIG. 31) ([3]; 100 ng SHAL i.p. once weekly for 3 consecutive weeks) [days] | effect of SHAL treatment on Jurkat's xenografts ([3]; mouse, in vivo) | median survival time ([3]; treated mice with Jurkat's xenografts) [days]
1 | CC(=O)NC(CCCNC(=N)N)C(=O)NC(CCCNC(=N)N)C(=O)NC(CCCNC(=N)N)C(=O)NC(CCCNC(=N)N)C(=O)NC(CCCNC(=N)N)C(=O)NC(CCCNC(=N)N)C(=O)NCCCCC(NC(=O)C(CCCCNC(=O)COCCOCCNC(=O)COCCOCCNC(=O)COCCOCCNC(=O)C(CCCCNC(=O)COCCOCCNC(=O)c1ccc(NC(=O)C(CCCNC(=N)N)NC(=O)c2ccccc2)cc1)NC(=O)C(NS(=O)(=O)c1ccc(N=Nc2ccc(N(C)C)cc2)cc1)C(C)C)NC(=O)COCCOCCNC(=O)COCCOCCNC(=O)COCCOCCNC(=O)C(CCCCNC(=O)COCCOCCNC(=O)c1ccc(NC(=O)C(CCCNC(=N)N)NC(=O)c2ccccc2)cc1)NC(=O)C(NS(=O)(=O)c1ccc(N=Nc2ccc(N(C)C)cc2)cc1)C(C)C)C(=O)NC(CCCCNC(=O)CN1CCN(CC(=O)O)CCN(CC(=O)O)CCN(CC(=O)O)CC1)C(=O)O (stereo not shown) [(DvLPBaPPP)2LArg6AcLLDo] | no evidence of degradation |  |  |  |  |  |  |  |  | 
2 | CC(C)C(NS(=O)(=O)c1ccc(N=Nc2ccc(N(C)C)cc2)cc1)C(=O)NCCOCCOCC(=O)NC(CCCCNC(=O)C(CCCCNC(=O)CC(=O)Nc1ccccc1Oc1ncc(C(F)(F)F)cc1Cl)NC(=O)COCCOCCNC(=O)c1ccc(N2CCN(Cc3ccc(Cl)cc3)CC2)c([N+](=O)[O-])c1)C(=O)NCCOCCOCC(=O)NC(CCCCNC(=O)CN1CCN(CC(=O)O)CCN(CC(=O)O)CCN(CC(=O)O)CC1)C(=O)O (stereo not shown) [tridentate SHAL] |  | 0.7 | 2.5 | 0.7 nM (pm/ml media) | 2.5 | 0 | 0 | ≤ 56 | not affected | 21
